Experiments:
[1] = target: T1, recombinant Caspase-1 (Homo sapiens, UniProt P29466); assay: Caspase Inhibitor Drug Screening Kit (BioVision), WAD-AFC substrate; assay type: biochemical; conditions: not active site titrated
T1 construct: purchased BioVision
Experimental: The half-maximal inhibitory concentrations (IC50) for NWL inhibitors (Patent publication # WO/2009/140765, WO/2010/133000, and WO/2012/140500) was determined by incubating 0 to 20 μM NWL-117 and NWL-154 with 20 nM of active site-titrated Casp6 in SB at room temperature for 5 minutes. Then, 10 μM Ac-VEID-AFC was added and fluorescence measured for 20 min at 37 °C as described above. New World Laboratories performed the IC50 determination for NWL inhibitors dissolved in dimethyl sulfoxide (DMSO) against recombinant Casp1-10 using the Caspase Inhibitor Drug Screening Kits (BioVision, San Francisco, CA) following the manufacturer’s instructions and the preferred substrates for the caspases (Caspase-1: WAD-AFC, Caspase-2: VDVAD-AFC, Caspase-3: DEVD-AFC, Caspase-4: LEVD-AFC, Caspase-5: WEHD-AFC, Casp6:VEID-AFC, Caspase-7: DEVD-AFC, Caspase-8: IETD-AFC, Caspase-9: LEHD-AFC, Caspase-10: AEVD-AFC). In transfected HCT116 cells, 0 to 100 μM NWL inhibitors were added in the culture media and left on the cells for 2 h. Cells were washed once with 1 mL ice-cold PBS, incubated on ice for 5 min with 200 μL cell lysis buffer (CLB) (50 mM HEPES, 0.1% CHAPS, 0.1 mM EDTA), and gently scraped off. Protein concentrations were determined by Bradford assay (BioRad, Mississauga, ON, CA) by measuring the absorbance at 595 nm using the BioTek Synergy H4 plate reader. […]

[2] = tested on: HCT116 cells; assay: Cellular toxicity in HCT116 cells (phase contrast, MTT, LDH, sub-G1); assay type: cell-based, human; conditions: for cell morphology (phase contrast) / lactate dehydrogenase (LDH) release / sub-G1 levels of DNA: HCT116, 100 μM, 24 h; for mitochondrial reductive potential (MTT): HCT116, 20, 50 or 100 μM, 24 or 48 h
Experimental: Immunofluorescence on human neuron cultures: Primary human neurons were pre-treated 2 h and serum-deprived in the presence of 100 μM NWL-117, 100 μM NWL-154, or 5 μM Z-VEID-fmk (Biomol, Plymouth meeting, PA, USA) for 24 h. Following treatment, human neurons were washed once with warm PBS, fixed for 20 min at room temperature with 4% paraformaldehyde (Sigma, Oakville, ON, CA)/4% sucrose (BioRad, Mississauga, ON, CA) for TubΔCasp6 or 2% formaldehyde (Thermo Fisher Scientific, Waltham, MA, USA)/0.2% glutaraldehyde (Sigma, Oakville, ON, CA) for pBudEGFP or pBudEGFP/APP^WT-transfected neurons, incubated in permeabilization buffer (0.1% Triton X-100, 0.1 sodium citrate) for 1 min on ice, washed with PBS, blocked for 20 min at room temperature with 10% goat serum (Sigma, Oakville, ON, CA), and incubated with primary antibodies diluted in 10% goat serum in PBS overnight at 4 °C in a humid chamber. The glass coverslips were washed with PBS, and incubated with goat anti-rabbit secondary antibody coupled to Alexa 488 (Molecular Probes, Eugene, OR, USA) or Cy3 (GE Healthcare Life Sciences, Baie D’Urfe, QC, CA) and Hoechst 33342 (ImmunoChemistry, Bloomington, MN, USA) at 1 μg/mL for 2 h at room temperature. The coverslips were washed with PBS and rinsed in Milli-Q water before mounting in fluoromount (Dako, Burlington, ON, CA). Images were acquired by fluorescence microscopy and quantified using the ImageJ software (NIH, Bethesda, MD, USA) for TubΔCasp6 and manually counted for transfected EGFP(+)-neurons. Time lapse-imaging by live fluorescence microscopy: Primary human neurons were transfected with gold beads coated with pBudEGFP or pBudEGFP/APP^WT using a Helios Gene gun (BioRad, Mississauga, ON, CA). Briefly, cells were pre-treated with 100 μM NWL inhibitors or 5 μM Z-VEID-fmk for 2 h. The media was removed and the neurons were shot at 100 psi. The media was quickly replaced with the inhibitors present. The plasmid was expressed for 16 h before setting up the fluorescence microscope (Nikon Eclipse Ti) to acquire 20 images per condition every hour for 72 h at 37 °C with 5% CO2. The images were analyzed by counting the total number of neurons (50–100 neurons per condition per independent experiment), and the number of beaded, swollen soma, and healthy neurons. In addition, the time at which cells beaded was noted. Phase contrast microscopy: HCT116 cells, plated at a density of 1×10^5 cells/well and human neurons, plated at a density of 6×10^6 cells/well on poly-L-lysine were treated with PBS, 100 μM NWL-117, 100 μM NWL-154, or 2 μM staurosporine (Biomol, Plymouth meeting, PA, USA) for 24 h. Images were acquired with the Nikon Eclipse Ti microscope and the NIS-Elements (Version 3.10) software.
MTT assay: HCT116 cells or primary human neurons were seeded in 96-well plates at a density of 1x10^4 and 1x10^5 cells per well, respectively. The next day, cells and neurons were treated with vehicle (PBS), or 20, 50, or 100 μM of NWL-117, NWL-154, or 2 μM staurosporine for 24 or 48 h. The media was replaced with […] MTT (3-(4,5-dimethylthiazol-2-yl)-2,5-diphenyltetrazolium bromide) (Sigma-Aldrich, Oakville, ON, CA) and the cells were incubated for 4 h at 37 °C in 5% CO2. The media was removed before dissolving the formazan crystals in 100 μL DMSO while shaking for 30 min. Once dissolved, the absorbance of each sample was measured at 560 nm and 670 nm using the Synergy H4 plate reader from BioTek (Winooski, VT, USA). LDH Assay: HCT116 cells were seeded in a 6-well plate at a density of 1×10^5 cells/well and treated the following day with 100 μM NWL-117 or −154 or equal volumes of vehicle (PBS) for 24 h. As a positive control, some cells were lysed for 2 h in 0.9% Triton X-100 (BioShop Canada Inc, Burlington, Ontario, CA). Media was collected and stored at −20 °C or assayed right away using the Cytotox 96 kit (Promega, Madison, WI, USA) following the manufacturer’s protocol. […]

T1 sequence (P29466 120-404): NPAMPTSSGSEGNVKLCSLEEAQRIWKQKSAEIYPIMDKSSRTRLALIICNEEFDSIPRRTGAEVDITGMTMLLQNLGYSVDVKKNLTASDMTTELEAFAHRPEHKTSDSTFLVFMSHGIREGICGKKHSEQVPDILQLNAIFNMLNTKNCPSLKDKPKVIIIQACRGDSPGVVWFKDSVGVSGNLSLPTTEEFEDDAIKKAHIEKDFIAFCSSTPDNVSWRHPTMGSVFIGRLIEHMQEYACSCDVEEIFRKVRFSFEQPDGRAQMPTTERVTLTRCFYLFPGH

Row | SMILES | IC50 [1] [µM] | cell morphology (phase contrast) [2] | lactate dehydrogenase (LDH) release [2] | sub-G1 levels of DNA [2] | mitochondrial reductive potential (MTT) [2]
1 | CCC(C)[C@H](NC(=O)[C@H](CCC(=O)O)NC(=O)[C@@H](NC(=O)OCc1ccccc1)C(C)C)C(=O)N[C@H](/C=C/S(C)(=O)=O)CC(=O)O (stereo partly shown) [NWL-117] | 2.7 | morphologically normal | did not release lactase dehydrogenase | nor did the cells show increased sub-G1 levels | comparable to vehicle-treated cells
2 | CCC(C)[C@H](NC(=O)[C@H](CCC(=O)O)NC(=O)[C@@H](NC(=O)OCc1ccccc1)C(C)C)C(=O)N[C@H](/C=C(\Cl)S(C)(=O)=O)CC(=O)O (stereo partly shown) [NWL-154] | 3.85 | morphologically normal | did not release lactase dehydrogenase | nor did the cells show increased sub-G1 levels | comparable to vehicle-treated cells

Source: publication PMC5329948, “Caspase vinyl sulfone small molecule inhibitors prevent axonal degeneration in human neurons and reverse cognitive impairment in Caspase-6-overexpressing mice” (Molecular Neurodegeneration, 2017)
